The results in this text go back to PubChem BioAssay AID328 (DTP/NCI, 2004).

This assay has as its system BDF1 mice, P388 leukemia ip, median survival T/C. Nature of the assay: NCI In Vivo Anticancer Drug Screen. Data for tumor model P388 Leukemia (intraperitoneal) in B6D2F1 (BDF1) mice. The settings on record: endpoint: median survival time, higher = longer survival. The method, boiled down: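 Vehicle-dosed animals serve as the reference; survival of compound-dosed, tumour-implanted mice is divided by it.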

Setting [1] is: dose: 5.0 mg/kg/injection, schedule: Q01DX009 (ip), vehicle: saline.
[2] abbreviates: dose: 100.0 mg/kg/injection, schedule: Q01DX009 (ip), vehicle: saline.
[3] abbreviates: dose: 100.0 mg/kg/injection, schedule: Q04DX003 (ip), vehicle: saline with Tween-80.
Where [4] appears, read: dose: 200.0 mg/kg/injection, schedule: Q04DX003 (ip), vehicle: saline with Tween-80.
Where [5] appears, read: dose: 400.0 mg/kg/injection, schedule: Q04DX003 (ip), vehicle: saline with Tween-80.
[6] abbreviates: dose: 100.0 mg/kg/injection, schedule: Q01DX001 (ip), vehicle: Klucel (hydroxypropylcellulose) (HPC).
The mark [7] stands for this setting: dose: 100.0 mg/kg/injection, schedule: Q04DX003 (ip), vehicle: Klucel (hydroxypropylcellulose) (HPC).
Where [8] appears, read: dose: 200.0 mg/kg/injection, schedule: Q01DX001 (ip), vehicle: Klucel (hydroxypropylcellulose) (HPC).
Setting [9] is: dose: 200.0 mg/kg/injection, schedule: Q04DX003 (ip), vehicle: Klucel (hydroxypropylcellulose) (HPC).
Where [10] appears, read: dose: 400.0 mg/kg/injection, schedule: Q01DX001 (ip), vehicle: Klucel (hydroxypropylcellulose) (HPC).
[11] abbreviates: dose: 400.0 mg/kg/injection, schedule: Q04DX003 (ip), vehicle: Klucel (hydroxypropylcellulose) (HPC).
The mark [12] stands for this setting: dose: 50.0 mg/kg/injection, schedule: Q04DX003 (ip), vehicle: Klucel (hydroxypropylcellulose) (HPC).
Where [13] appears, read: dose: 50.0 mg/kg/injection, schedule: Q01DX009 (ip), vehicle: saline with Tween-80.
The mark [14] stands for this setting: dose: 100.0 mg/kg/injection, schedule: Q01DX009 (ip), vehicle: saline with Tween-80.
The mark [15] stands for this setting: dose: 200.0 mg/kg/injection, schedule: Q01DX009 (ip), vehicle: saline with Tween-80.
Setting [16] is: dose: 100.0 mg/kg/injection, schedule: Q04DX002 (ip), vehicle: saline with Tween-80.
Where [17] appears, read: dose: 200.0 mg/kg/injection, schedule: Q04DX002 (ip), vehicle: saline with Tween-80.

Values joined by “and” are separate entries in the source; they are usually repeats but may differ in a detail not shown here. Equal values may be shown once. Inconclusive results and toxic doses are left out.

Consider `COC1N(C2CC(O)C(CO)O2)C(=O)NC(=O)C1(F)Br` (centres undefined), for which the T/C was 90 % of control under setting [1]; 109 % of control (dose: 10.0 mg/kg/injection, schedule: Q01DX009 (ip), vehicle: saline); 109 % of control (dose: 20.0 mg/kg/injection, schedule: Q01DX009 (ip), vehicle: saline); 122 % of control (dose: 40.0 mg/kg/injection, schedule: Q01DX009 (ip), vehicle: saline); 111 % of control (dose: 50.0 mg/kg/injection, schedule: Q01DX009 (ip), vehicle: saline); 113 % of control under setting [2]. For the same compound, the T/C by setting is: (dose: 100.0 mg/kg/injection, schedule: Q04DX003 (ip), vehicle: saline) 104 % of control; (dose: 200.0 mg/kg/injection, schedule: Q01DX009 (ip), vehicle: saline) 106 % of control; (dose: 200.0 mg/kg/injection, schedule: Q04DX003 (ip), vehicle: saline) 122 % of control; (dose: 400.0 mg/kg/injection, schedule: Q01DX009 (ip), vehicle: saline) 94 % of control; (dose: 400.0 mg/kg/injection, schedule: Q04DX003 (ip), vehicle: saline) 150 % of control.

Consider `COP1(=O)OCC2OC(n3cnc4c(N)ncnc43)C(O)C2O1` (centres undefined), for which, under setting [2], the T/C was 88 % of control.

As to `O=C(O)CNC(=O)C(Br)Cc1ccccc1` (centres undefined), the T/C under setting [3] was 90 % of control, the T/C under setting [4] is 100 % of control and the T/C under setting [5] is 100 % of control.

Turning to `CC(C)c1ccc(O)c(=O)cc1`, the T/C is, setting by setting: (dose: 40.0 mg/kg/injection, schedule: Q01DX010 (ip), vehicle: carboxymethylcellulose (CMC)) 95 % of control; (dose: 80.0 mg/kg/injection, schedule: Q01DX010 (ip), vehicle: carboxymethylcellulose (CMC)) 100 % of control; (dose: 160.0 mg/kg/injection, schedule: Q01DX010 (ip), vehicle: carboxymethylcellulose (CMC)) 100 % of control.

Regarding `NC(=O)NO.NC(=O)NO.[Cl][Ni][Cl]`, the T/C (dose: 3.12 mg/kg/injection, schedule: Q01DX009 (ip), vehicle: saline) was 92 % of control.

Take `CC(=O)CC(=O)c1ccccc1`: the T/C under setting [6] was 112 % of control; the T/C under setting [7] was 108 % of control; the T/C under setting [8] is 95 % of control; the T/C under setting [9] was 108 % of control; the T/C under setting [10] is 91 % of control; the T/C under setting [11] was 112 % of control.

Regarding `c1ccc(Nc2ccc(Nc3ccccc3)cc2)cc1`, the T/C reads like this: under setting [12], 118 % of control; under setting [6], 90 % of control; under setting [7], 104 % of control; under setting [8], 100 % of control; under setting [9], 104 % of control; under setting [10], 90 % of control.

With `CC(=O)O[C@]1(C(C)=O)CC[C@H]2[C@@H]3C[C@H](Cl)C4=CC(=O)CC[C@]4(C)[C@H]3CC[C@@]21C`, the T/C runs as follows: under setting [13], 113 % of control; under setting [14], 109 % of control; under setting [3], 108 % of control; under setting [15], 100 % of control; under setting [4], 100 % of control.

Take `O=C(c1ccccc1Br)C(Br)C(Br)c1ccccc1` (centres undefined): the T/C under setting [7] is 120 % of control and the T/C under setting [9] is 110 % of control.

With `CCC1/C=C/C=C/CC(C)C(O)C(C)(O)C(=O)C(C)C(O)C(C)C(=O)C(C)C(O)C(C)/C=C/C(=O)OC2C(C)C(CC1)OC1(OC(CC(C)O)C(C)CC1=O)C2C` (centres undefined) (tested in a mixture with another compound), the T/C reads like this: (dose: 0.15 mg/kg/injection, schedule: Q01DX010 (ip), vehicle: carboxymethylcellulose (CMC)) 110 % of control; (dose: 0.15 mg/kg/injection, schedule: Q01DX010 (ip), vehicle: saline) 109 % of control; (dose: 0.3 mg/kg/injection, schedule: Q01DX010 (ip), vehicle: carboxymethylcellulose (CMC)) 110 % of control; (dose: 0.3 mg/kg/injection, schedule: Q01DX010 (ip), vehicle: saline) 150 % of control and 154 % of control; (dose: 0.6 mg/kg/injection, schedule: Q01DX010 (ip), vehicle: carboxymethylcellulose (CMC)) 120 % of control; (dose: 0.6 mg/kg/injection, schedule: Q01DX010 (ip), vehicle: saline) 154 % of control. Further, the T/C runs as follows: (dose: 1.2 mg/kg/injection, schedule: Q01DX010 (ip), vehicle: carboxymethylcellulose (CMC)) 190 % of control; (dose: 1.2 mg/kg/injection, schedule: Q01DX010 (ip), vehicle: saline) 163 % of control; (dose: 2.5 mg/kg/injection, schedule: Q01DX009 (ip), vehicle: saline) 154 % of control; (dose: 2.5 mg/kg/injection, schedule: Q01DX010 (ip), vehicle: saline) 154 % of control; under setting [1], 163 % of control; (dose: 37.0 micrograms/kg/injection, schedule: Q01DX010 (ip), vehicle: saline) 120 % of control. In addition, the T/C (dose: 150.0 micrograms/kg/injection, schedule: Q01DX010 (ip), vehicle: saline) is 150 % of control.

For `CCCCc1c(C)[nH]c(=S)[nH]c1=O`, the T/C was 95 % of control under setting [3], 109 % of control under setting [4] and 95 % of control under setting [5].

Take `Cc1c(C)c(CO)c(C)c(C)c1CO`: the T/C was 96 % of control (dose: 8.0 mg/kg/injection, schedule: Q01DX009 (ip), vehicle: Klucel (hydroxypropylcellulose) (HPC)); 89 % of control (dose: 12.0 mg/kg/injection, schedule: Q01DX009 (ip), vehicle: Klucel (hydroxypropylcellulose) (HPC)); 104 % of control (dose: 12.0 mg/kg/injection, schedule: Q04DX003 (ip), vehicle: Klucel (hydroxypropylcellulose) (HPC)); 96 % of control (dose: 18.0 mg/kg/injection, schedule: Q01DX009 (ip), vehicle: Klucel (hydroxypropylcellulose) (HPC)); 95 % of control (dose: 25.0 mg/kg/injection, schedule: Q04DX003 (ip), vehicle: Klucel (hydroxypropylcellulose) (HPC)); 104 % of control under setting [12].

On to `CCn1c2ccc(N)cc2c2c3[nH]c(=O)c4cccn4c3ccc21`, for which the T/C reads like this: under setting [16], 100 % of control; under setting [17], 92 % of control.

For the compound `CCC(C)OP1(=S)OCC(C)O1` (centres undefined), the T/C was 115 % of control under setting [16]; 106 % of control under setting [17]; 118 % of control (dose: 400.0 mg/kg/injection, schedule: Q04DX002 (ip), vehicle: saline with Tween-80).

Take `O=C1c2ccccc2C2N1CCCN2C(=O)c1sc2ccccc2c1Cl` (centres undefined): the T/C by setting is: under setting [13], 88 % of control; under setting [14], 86 % of control; under setting [15], 94 % of control.

Turning to `CCOC(=O)CNC(c1ccccc1)(c1ccccc1)c1ccccc1`, the T/C is 95 % of control (dose: 100.0 mg/kg/injection, schedule: Q01DX009 (ip), vehicle: Klucel (hydroxypropylcellulose) (HPC)); 109 % of control under setting [7]; 91 % of control (dose: 200.0 mg/kg/injection, schedule: Q01DX009 (ip), vehicle: Klucel (hydroxypropylcellulose) (HPC)); 113 % of control under setting [9]; 108 % of control (dose: 400.0 mg/kg/injection, schedule: Q01DX009 (ip), vehicle: Klucel (hydroxypropylcellulose) (HPC)); 104 % of control under setting [11].
